Among the data in patent publication US20240390355A1, “IRHOM2 INHIBITORS AND USES THEREOF” (NEW YORK SOCIETY FOR THE RELIEF OF THE RUPTURED AND …, priority 2021, published 2024) are IC50 values, retold here.

Molecules are shown by their SMILES.

What all share (format): cell-based
Test [1] has as its system TNFα release from THP-1 cells. As to the kind of experiment: Primary screen (Example 1a): LPS-stimulated TNFα release from THP-1 cells, HTRF. The note with it: Homo sapiens, 100 ng/mL LPS, 3 h, normalised to 50 μM Batimastat, read-out: Primary Screen XC50 TNFα. The method, then:
(§1) Two separate screens to identify novel small molecule inhibitors of iRhom2/ADAM17 activity were developed. […] Therefore, the primary screen for small molecule inhibitors of iRhom2/ADAM17 was a screen for inhibitors that blocked the release of TNFα from LPS-stimulated THP-1 human myeloid cells, a process that depends on iRhom2 and ADAM17. Since the release of TNFα from THP-1 cells can be blocked at many stages of the LPS/TLR4/iRhom2/ADAM17 pathway, a secondary screen was performed for another iRhom2/ADAM17 selective substrate, Kit-ligand 2 (KL-2) (Maretzky T et al. (July 2013), “iRhom2 controls the substrate selectivity of stimulated ADAM17-dependent ectodomain shedding”, PNAS 110(28): 11433-11438) in a different human cell type, human embryonic kidney cells (HEK 293).
THP-1 cells were plated in 384 or 1,536 wells and transferred on the ultra-high throughput screening (uHTS) platform Mark III, and TNFα shedding was initiated by LPS stimulation of THP-1 cells. The extent of released TNFα was detected with the corresponding HTRF antibodies labeled with europium cryptate (donor) and d2 (acceptor). The HTRF signal was generated by proximity of europium cryptate and d2. All detection reagents were purchased from Cisbio. TNFα detection was performed according to the manufacturer's protocol (Product Insert for Cisbio TNFα (h) Kit Part #62HTNFAPEG & 62HTNFAPEH;
7.5 nL compound and controls in DMSO [10 μM in assay; 0.25% DMSO in 3 [μL Assay] were dissolved in 2 μL cell suspension [2.4E6/mL; 4800 cells/well; culture w/o PenStrep], pre-incubated at 37° C., 5% CO2, for 15 min with 1 μL LPS [100 ng/mL in 3 μL assay]. The cells were incubated at 37° C., 5% CO2, for 3 h with 2 μL of the HTRF-mix [1:300 f.c.]. After an incubation at room temperature for 2 h or longer, the HTRF readout was performed. Then data evaluation for normalization against the 50 μM Batimastat control (=100% […]) was applied. As an additional control, 300 nM Batimastat was used to monitor performance of cells and assay sensitivity over time.
On the technique in general: TR-FRET usually uses a lanthanide donor and a delayed reading to cut background.

Test [2] relates to KL2 release from HEK-293 cells. As to the kind of experiment: Secondary screen (Example 3a): PMA-stimulated KL2 release from HEK-293 cells, AP readout. The note with it: Homo sapiens, HEK293, HEK-293 cells expressing KL2-AP, PMA 500 ng/mL, 2 h, read-out: Secondary Screen XC50 KL2. On the procedure:
as §1
(§2) First, expression plasmids for alkaline phosphatase (AP)-fused KL2 and TGFα were designed and generated through gene synthesis followed by subcloning into the pcDNA3.1(+)/Hygro expression vector. […] Subsequently, DNA amplifications were performed to obtain sufficient amounts of the expression vectors. The quality of DNA and gene sequences were confirmed through restriction digest and Sanger sequencing. In parallel, cell culture of THP-1 and HEK-293 cells was initiated. Master and working cell banks were prepared. Both cell lines were scaled up and transfected with the respective constructs by electroporation. During cell culturing, cell density and viability were monitored to ensure optimal conditions for the transfections. After PMA stimulation, AP-coupled KL2 or TGFα were detected by measurement of AP activity in the supernatant. […] In contrast, THP-1 cells turned out to be not a suitable transfection host resulting in a loss of cell viability after transfection. The decision was made to proceed with HEK-293 for both selectivity assays and to establish polyclonal cell lines stably expressing AP-coupled KL2 or TGFα.
(§3) After electroporation, cells were further cultured in presence of selection antibiotics, hygromycin B, to generate stably transfected polyclonal cell pools. For both assays, KL2 and TGFα shedding, the respective selected pool turned out to be suitable. Final assay conditions were determined for the selected pools. For all experiments, batimastat (30 μM) was used as positive control for full inhibition of KL2 or TGFα shedding.
(§4) 60 μL of cells (40,000/well) were added to a sterile 384-well plate. After incubation overnight at 37° C. (5% CO2), 50 μL medium were removed and 20 μL of prediluted compounds were added to the cells. After incubation for 15 min, 20 μL of PMA (500 ng/mL final conc.) were added. The cells were incubated for 2 h at 37° C. (5% CO2). Then, 20 μL of the supernatant was transferred to a fresh plate and 20 μL of pNPP (5 mM final conc.) was added. AP reaction was performed for 1 h at RT. The reaction was stopped by addition of 20 μL of NaOH (1 M final conc.) and the absorbance of pNP was measured at 405 nm.

For test [3], the system named is TGFα release from HEK-293 cells. As to the kind of experiment: Counter screen (Example 4a): PMA-stimulated TGFα release from HEK-293 cells, AP readout. Particulars: Homo sapiens, HEK293, HEK-293 cells expressing TGFα-AP, PMA 100 ng/mL, 2 h, read-out: Counter Screen XC50 TGFα. The method, then:
A tertiary counterscreen was also performed to monitor the release of TGFα, which is a substrate of iRhom1/ADAM17 and iRhom2/ADAM17, so its release should not be blocked by an iRhom2-selective inhibitor (Maretzky T et al. (July 2013), “iRhom2 controls the substrate selectivity of stimulated ADAM17-dependent ectodomain shedding”, PNAS 110(28): 11433-11438; and Li X et al. (May 2015), “iRhoms 1 and 2 are essential upstream regulators of ADAM17-dependent EGFR signaling”, PNAS 112(19): 6080-6085).
as §2, §3
as §4, with “of cells (20,000/well) were added” for “of cells (40,000/well) were added”, “of PMA (100 ng/mL final” for “of PMA (500 ng/mL final”, “was added. The AP reaction” for “was added. AP reaction”

For `COc1ccc(-c2cnc3sc(NCCCO)nn23)cc1OC` [Compound 32], the IC50 in test [1] was 68.7 µM; in test [2] it was 66.5 µM; in test [3], greater than 128 µM.
Regarding `O=C(CCn1sc2ccccc2c1=O)Nc1ccc2cc[nH]c2c1` [Compound 33], the IC50 in test [1] worked out at 5.1 µM; in test [2], 6 µM; in test [3], 24.1 µM.
The corresponding values for `CCC(C)NC(=O)c1cc(C(=O)c2ccccc2C)c[nH]1` (stereo not drawn) [Compound 34] are 10.2 µM, greater than 128 µM and greater than 128 µM.
The corresponding values for `O=C(c1c[nH]c(-c2nnc3n2CCCCC3)c1)c1cc(F)ccc1O` [Compound 35] are 28.2 µM, greater than 128 µM and greater than 128 µM.
The corresponding values for `c1ccc(-c2ncn(CCc3c[nH]cn3)c2-c2ccncc2)cc1` [Compound 36] are 19 µM, greater than 128 µM and greater than 128 µM.
As for `CC(C)c1nccc(-c2c(-c3ccccc3)ncn2CCc2c[nH]cn2)n1` [Compound 37], the IC50 in test [1] is 4.99 µM; in test [2] it was greater than 128 µM; in test [3], greater than 128 µM.
Regarding `OC(Cc1ccccc1)Cn1cnc(-c2ccccc2)c1-c1cccnc1` (stereo not drawn) [Compound 38], the IC50 in test [1] is 108 µM; in test [2] it was greater than 128 µM; in test [3] it was greater than 128 µM.
Take `COc1ccccc1-c1c(-c2ccccc2C)ncn1C1CC(C)(C)N(C)C(C)(C)C1` [Compound 39]: the IC50 is 41.5 µM in test [1], greater than 128 µM in test [2] and greater than 128 µM in test [3].
Take `CC(C)c1nccc(-c2c(-c3ccccc3)ncn2C[C@H]2CCCN2)n1` [Compound 40]: the IC50 in test [1] was 21 µM; in test [2], greater than 128 µM; in test [3], greater than 128 µM.
In the case of `CC(C)c1nccc(-c2c(-c3ccccc3)ncn2C[C@H]2CCCO2)n1` [Compound 41], the values for the IC50 in test [1], in test [2] and in test [3] were 11.6 µM, greater than 128 µM and greater than 128 µM, respectively.
Consider `Cc1nc[nH]c1-c1nccn1-c1ccc2c(c1)CCC2` [Compound 42], for which the IC50 was 31 µM in test [1], greater than 128 µM in test [2] and greater than 128 µM in test [3].
